Test [1] has as its target T1, Human fibrinogen receptor (αIIbβ3) (Homo sapiens, UniProt P05106+P08514).
T1 construct: Human fibrinogen receptor (αIIbβ3) was purified from outdated platelets; from tissue; host or cells: outdated human platelets
Put plainly: Purified IIb/IIIa receptor assay (solid phase receptor assay, competition with biotinylated vitronectin). It counts as binding. The following applies: read-out: IIb/IIIa IC50. How it is done: PURIFIED IIb/IIIa RECEPTOR ASSAY
Human fibrinogen receptor (αIIbβ3) was purified from outdated platelets. […] Biotinylated human vitronectin was prepared by coupling NHS-biotin from Pierce Chemical Company (Rockford, Ill.) to purified vitronectin as previously described. […] Anti-biotin antibody was obtained from Calbiochem (La Jolla, Calif.). Linbro microtiter plates were obtained from Flow Labs (McLean, Va.). ADP reagent was obtained from Sigma (St. Louis, Mo.).
(§1) Solid Phase Receptor Assays
(§2) The purified human fibrinogen receptor (αIIbβ3) was diluted from stock solutions to 1.0 μg/mL in Tris-buffered saline containing 1.0 mM Ca^++, Mg^++, and Mn^++, pH 7.4 (TBS^+++). The diluted receptor was immediately transferred to Linbro microtiter plates at 100 μL/well (100 ng receptor/well). The plates were sealed and incubated overnight at 4° C. to allow the receptor to bind to the wells. All remaining steps were at room temperature. The assay plates were emptied and 200 μL of 1% RIA grade BSA in TBS^+++ (TBS^+++/BSA) were added to block exposed plastic surfaces. Following a 2 hour incubation, the assay plates were washed with TBS^+++ using a 96 well plate washer. Logarithmic serial dilution of the test compound and controls were made starting at a stock concentration of 2 mM and using 2 nM biotinylated vitronectin in TBS^+++/BSA as the diluent. This premixing of labeled ligand with test (or control) ligand, and subsequent transfer of 50 μL aliquots to the assay plate was carried out with a CETUS Propette robot; the final concentration of the labeled ligand was 1 nM and the highest concentration of test compound was 1.0×10^−4 M. The competition occurred for two hours after which all wells were washed with a plate washer as before. Affinity purified horseradish peroxidase labeled goat anti-biotin antibody was diluted 1:3000 in TBS^+++/BSA and 125 μL were added to each well. After 30 minutes, the plates were washed and incubated with ODD/H2O2 substrate in 100 mM/L citrate buffer, pH 5.0. The plate was read with a microtiter plate reader at a wavelength of 450 nm and when the maximum-binding control wells reached an absorbance of about 1.0, the final A450 were recorded for analysis. The data were analyzed using a macro written for use with the EXCEL™ spreadsheet program. The mean, standard deviation, and % CV were determined for duplicate concentrations. The mean A450 values were normalized to the mean of four maximum-binding controls (no competitor added)(B-MAX). The normalized values were subjected to a four parameter curve fit algorithm, [Robard et al., Int.

The target of test [2] is T2, Human vitronectin receptor (αvβ3) (Homo sapiens, UniProt P05106+P06756).
T2 construct: Human vitronectin receptor (αvβ3) was purified from human placenta; from tissue; host or cells: human placenta
Put plainly: Vitronectin adhesion assay (solid phase receptor assay, competition with biotinylated vitronectin). The format is binding. The following applies: read-out: AvB3 IC50. How it is done: VITRONECTIN ADHESION ASSAY
Assay buffer, OPD substrate tablets, and RIA grade BSA were obtained from Sigma (St. Louis, Mo.). Anti-biotin antibody was obtained from Calbiochem (La Jolla, Calif.). Linbro microtiter plates were obtained from Flow Labs (McLean, Va.). ADP reagent was obtained from Sigma (St. Louis, Mo.).
as §1
as §2, with “vitronectin” for “fibrinogen”, “(αvβ3)” for “(αIIbβ3)”, “TBS^+++(TBS^+++/BSA)” for “TBS^+++ (TBS^+++/BSA)”, “OPD/H2O2” for “ODD/H2O2”, “Citrate” for “citrate”, “algorithm [Rodbard” for “algorithm, [Robard”

Counter-ions that a name gives are not always drawn.

`O=C(O)CC(NC(=O)CNC(=O)c1cccc(NC2=NCCC2)c1)c1cc(Cl)cc(Cl)c1` (racemic) [Example 203, (±)β-[[2-[[[3-[(3,4-dihydro-2H-pyrrol-5-yl)amino]phenyl]carbonyl]amino]acetyl]amino]-3,5-dichlorobenzenepropanoic acid, trifluoroacetate salt]: the values for the IC50 in test [1] and in test [2] were 650 nM and 3.56 nM, respectively.

As to `O=C(O)CC(NC(=O)CNC(=O)c1cccc(NC2=NCCCC2)c1)c1cc(Cl)cc(Cl)c1` (racemic) [Example 205, (±)3,5-dichloro-β-[[2-[[[3-[(2,3,4,5-tetrahydropyridin-6-yl)amino]phenyl]carbonyl]amino]acetyl]amino]benzenepropanoic acid, trifluoroacetate salt], the values for the IC50 in test [1] and in test [2] were 1240 nM and 1.68 nM, respectively.

Consider `NC(=S)Nc1cccc(C(=O)NCC(=O)NC(CC(=O)O)c2cc(Cl)cc(Cl)c2)c1` (racemic) [Example 206, (±)β-[[2-[[[3-[(aminothioxomethyl)amino]phenyl]carbonyl]amino]acetyl]amino]-3,5-dichlorobenzenepropanoic acid], for which the IC50 was found to be 22000 nM in test [1] and 78.5 nM in test [2].

As to `N=C(N)Nc1cccc(C(=O)NCC(=O)NC(CC(=O)O)c2ccc(Br)c(Br)c2)c1` (racemic) [Example 207, (±)β-[[2-[[[3-[(aminoiminomethyl)amino]phenyl]carbonyl]amino]acetyl]amino]-3,4-dibromobenzenepropanoic acid, trifluoroacetate salt], the results for the IC50 in test [1] and in test [2] were 148 nM and 0.9 nM, respectively.

For the compound `N=C(N)Nc1cccc(C(=O)NCC(=O)NC(CC(=O)O)c2cc(F)cc(C(F)(F)F)c2)c1` (racemic) [Example 208, (±)β-[[2-[[[3-[(aminoiminomethyl)amino]phenyl]carbonyl]amino]acetyl]amino]-3-fluoro-5-(trifluoromethyl)benzenepropanoic acid, trifluoroacetate salt], the values for the IC50 in test [1] and in test [2] were 277 nM and 1.15 nM, respectively.

For `N=C(N)Nc1cccc(C(=O)NCC(=O)NC(CC(=O)O)c2cc(F)cc(Br)c2)c1` (racemic) [Example 209, (±)β-[[2-[[[3-[(aminoiminomethyl)amino]phenyl]carbonyl]amino]acetyl]amino]-3-bromo-5-fluorobenzenepropanoic acid, trifluoroacetate salt], the IC50 in test [1] worked out at 140 nM; in test [2] it was 0.83 nM.

As to `N=C(N)Nc1cccc(C(=O)NCC(=O)NC(CC(=O)O)c2cc(Br)cc(Br)c2)c1` (racemic) [Example 210, (±)β-[[2-[[[3-[(aminoiminomethyl)amino]phenyl]carbonyl]amino]acetyl]amino]-3,5-dibromobenzenepropanoic acid, trifluoroacetate salt], the IC50 in test [1] was found to be 343 nM; in test [2], 2.62 nM.

Take `O=C(O)CC(NC(=O)CNC(=O)c1cccc(NC2=NCCCN2)c1)c1cc(Br)cc(Br)c1` (racemic) [Example 211, (±)3,5-dibromo-β-[[2-[[[3-[(1,4,5,6-tetrahydropyrimidin-2-yl)amino]phenyl]carbonyl]amino]acetyl]amino]benzenepropanoic acid, trifluoroacetate salt]: the IC50 in test [1] worked out at 607 nM; in test [2], 0.47 nM.

As for `Cc1cc(Br)cc(C(CC(=O)O)NC(=O)CNC(=O)c2cccc(NC(=N)N)c2)c1` (racemic) [Example 212, (±)β-[[2-[[[3-[(aminoiminomethyl)amino]phenyl]carbonyl]amino]acetyl]amino]-3-bromo-5-methylbenzenepropanoic acid, trifluoroacetate salt], the IC50 in test [1] turned out to be 306 nM; in test [2], 1.93 nM.

On to `N=C(N)Nc1cc(C(=O)NCC(=O)NC(CC(=O)O)c2cc(Br)cc(Br)c2)cc(C(F)(F)F)c1` (racemic) [Example 213, (±)β-[[2-[[[3-[(aminoiminomethyl)amino]-5-(trifluoromethyl)phenyl]carbonyl]amino]acetyl]amino]-3,5-dibromobenzenepropanoic acid, trifluoroacetate salt], for which the IC50 in test [1] was found to be 334 nM; in test [2], 2.93 nM.

For the origin of these results see patent US6831199B1, “Pyrimidine compounds and derivatives thereof” (G. D. Searle & Co., priority 1995, dated 2004).
